Experimental data reported in ChEMBL document CHEMBL3992552, “Mechanisms of action and structure-activity relationships of cytotoxic flavokawain derivatives” (Bioorg Med Chem, 2017).
Calls of active or inactive are those of the source. No cut-off for these calls is given here.

System: MDA-MB-231
Test: Induction of apoptosis in human MDA-MB-231 cells harboring p53 mutant assessed as increase in early apoptosis at 2 times IC50 after 24 hrs by YoPro/propidium iodide/Hoechst staining based assay
Format: functional, cell-based
Settings: not given
With COc1cc(O)c(C(=O)/C=C/c2ccccc2)c(OC)c1 [FLAVOKAWAIN B] the Activity was “Active”.

System: NCI-H727
Test: Cell cycle arrest in human NCI-H727 cells assessed as accumulation at G1/S phase by Hoechst staining based fluorescence assay
Format: functional
Settings: not given
For COc1cc(O)c(C(=O)/C=C/c2ccccc2)c(OC)c1 [FLAVOKAWAIN B], the Activity was “Active”.

System: Huh-7
Test: Cytotoxicity against human HuH7 cells assessed as cell viability after 48 hrs by Hoechst 33342 staining based assay
Format: functional
Settings: Huh-7, 48 h
Compound COc1cc(O)c(C(=O)/C=C/c2ccccc2)c(OC)c1 [FLAVOKAWAIN B] has an IC50 of 15.9 µM.

System: Caco-2
Test: Cell cycle arrest in human Caco2 cells assessed as mitotic index at 25 uM measured after 48 hrs by Hoechst staining based fluorescence assay (reference value: 3.6)
Format: functional
Settings: not given
In the case of COc1cc(O)c(C(=O)/C=C/c2ccccc2)c(OC)c1 [FLAVOKAWAIN B], the Activity_index is reported as 19.3.

System: Huh-7
Test: Cytotoxicity against human HuH7 cells assessed as cell survival at 50 uM after 48 hrs by Hoechst 33342 staining based assay relative to control
Format: functional
Settings: Huh-7, 48 h, read-out: Survival
Compound COc1cc(O)c(C(=O)/C=C/c2ccccc2)c(OC)c1 [FLAVOKAWAIN B] has a viability at 50 µM of 10%.

System: MDA-MB-231
Test: Induction of apoptosis in human MDA-MB-231 cells harboring p53 mutant assessed as increase in cleaved caspase3 at 2 times IC50 after 24 hrs by Hoechst staining based assay
Format: functional, cell-based
Settings: not given
In the case of COc1cc(O)c(C(=O)/C=C/c2ccccc2)c(OC)c1 [FLAVOKAWAIN B], the Activity is reported as “Active”.

System: HaCaT
Test: Cell cycle arrest in human HaCaT cells harboring […] p53 assessed as mitotic index at 25 uM measured after 48 hrs by Hoechst staining based fluorescence assay (reference value: 2.6)
Format: functional
Settings: not given
COc1cc(O)c(C(=O)/C=C/c2ccccc2)c(OC)c1 [FLAVOKAWAIN B] showed an Activity_index of 0.9.

System: PC-3
Test: Cell cycle arrest in human PC3 cells harboring p53 mutant assessed as mitotic index at 25 uM measured after 48 hrs by Hoechst staining based fluorescence assay (reference value: 2.5)
Format: functional
Settings: not given
COc1cc(O)c(C(=O)/C=C/c2ccccc2)c(OC)c1 [FLAVOKAWAIN B] showed an Activity_index of 2.

System: HCT-116
Test: Cell cycle arrest in human HCT116 cells harboring wild-type p53 assessed as accumulation at S phase at 10 uM measured after 48 hrs by Hoechst/BrdU staining based fluorescence assay (reference value: 68.4%)
Format: functional
Settings: not given
Work on COc1cc(O)c(C(=O)/C=C/c2ccccc2)c(OC)c1 [FLAVOKAWAIN B] yielded an Activity of 37%.

System: HCT-116
Test: Induction of apoptosis in human HCT116 cells harboring wild-type p53 assessed as increase in cleaved caspase3 at 2 times IC50 after 48 hrs by Hoechst staining based assay
Format: functional, cell-based
Settings: not given
For COc1cc(O)c(C(=O)/C=C/c2ccccc2)c(OC)c1 [FLAVOKAWAIN B], the Activity was “Active”.

System: HCT-116
Test: Induction of apoptosis in human HCT116 cells harboring wild-type p53 assessed as increase in late apoptosis at 2 times IC50 after 48 hrs by YoPro/propidium iodide/Hoechst staining based assay
Format: functional, cell-based
Settings: not given
In the case of COc1cc(O)c(C(=O)/C=C/c2ccccc2)c(OC)c1 [FLAVOKAWAIN B], the Activity is reported as “Active”.

System: Caco-2
Test: Cell cycle arrest in human Caco2 cells assessed as accumulation at M phase by Hoechst staining based fluorescence assay
Format: functional
Settings: not given
In the case of COc1cc(O)c(C(=O)/C=C/c2ccccc2)c(OC)c1 [FLAVOKAWAIN B], the Activity is reported as “Active”.

System: not listed separately
Test: Cytotoxicity against human fibroblasts assessed as cell survival at 50 uM after 48 hrs by Hoechst 33342 staining based assay relative to control
Set-up: species or system Fibroblast
Settings: read-out: Survival
COc1cc(O)c(C(=O)/C=C/c2ccccc2)c(OC)c1 [FLAVOKAWAIN B] gave a viability at 48 h, 50 µM of 32%.

System: Fibroblast
Test: Cytotoxicity against human fibroblasts assessed as cell viability after 48 hrs by Hoechst 33342 staining based assay
Settings: not given
With COc1cc(O)c(C(=O)/C=C/c2ccccc2)c(OC)c1 [FLAVOKAWAIN B] the IC50 was > 20 µM.

System: Caco-2
Test: Cytotoxicity against human Caco2 cells assessed as cell viability after 48 hrs by Hoechst 33342 staining based assay
Format: functional
Settings: Caco-2, 48 h
Work on COc1cc(O)c(C(=O)/C=C/c2ccccc2)c(OC)c1 [FLAVOKAWAIN B] yielded an IC50 of 9.9 µM.

System: PC-3
Test: Induction of apoptosis in human PC3 cells harboring p53 mutant assessed as increase in early apoptosis at 2 times IC50 after 48 hrs by YoPro/propidium iodide/Hoechst staining based assay
Format: functional, cell-based
Settings: not given
For COc1cc(O)c(C(=O)/C=C/c2ccccc2)c(OC)c1 [FLAVOKAWAIN B], the Activity was “Active”.

System: NCI-H727
Test: Cell cycle arrest in human NCI-H727 cells harboring p53 mutant assessed as mitotic index at 25 uM measured after 48 hrs by Hoechst staining based fluorescence assay (reference value: 1.1)
Format: functional
Settings: not given
Compound COc1cc(O)c(C(=O)/C=C/c2ccccc2)c(OC)c1 [FLAVOKAWAIN B] has an Activity_index of 0.2.

System: PC-3
Test: Cytotoxicity against human PC3 cells assessed as cell viability after 48 hrs by Hoechst 33342 staining based assay
Format: functional
Settings: PC-3, 48 h
In the case of COc1cc(O)c(C(=O)/C=C/c2ccccc2)c(OC)c1 [FLAVOKAWAIN B], the IC50 is reported as 9.1 µM.

System: HCT-116
Test: Induction of apoptosis in human HCT116 cells harboring wild-type p53 assessed as upregulation of cyclinB1 measured after 48 hrs by Hoechst staining based assay
Format: functional, cell-based
Settings: not given
For COc1cc(O)c(C(=O)/C=C/c2ccccc2)c(OC)c1 [FLAVOKAWAIN B], the Activity was “Active”.

System: MDA-MB-231
Test: Induction of apoptosis in human MDA-MB-231 cells harboring p53 mutant assessed as upregulation of cyclinB1 after 18 hrs by Hoechst staining based assay
Format: functional, cell-based
Settings: not given
In the case of COc1cc(O)c(C(=O)/C=C/c2ccccc2)c(OC)c1 [FLAVOKAWAIN B], the Activity is reported as “Active”.

System: not listed separately
Test: Selectivity index, ratio of IC50 for human fibroblasts to IC50 for human HaCaT cells
Settings: not given
With COc1cc(O)c(C(=O)/C=C/c2ccccc2)c(OC)c1 [FLAVOKAWAIN B] the “Ratio IC50” value was 1.9.

System: PC-3
Test: Cell cycle arrest in human PC3 cells harboring p53 mutant assessed as mitotic index at 10 uM measured after 48 hrs by Hoechst staining based fluorescence assay (reference value: 2.5)
Format: functional
Settings: not given
For COc1cc(O)c(C(=O)/C=C/c2ccccc2)c(OC)c1 [FLAVOKAWAIN B], the Activity_index was 4.2.

System: HCT-116
Test: Cell cycle arrest in human HCT116 cells assessed as accumulation at G1/S phase by Hoechst staining based fluorescence assay
Format: functional
Settings: not given
With COc1cc(O)c(C(=O)/C=C/c2ccccc2)c(OC)c1 [FLAVOKAWAIN B] the Activity was “Active”.

System: HCT-116
Test: Induction of apoptosis in human HCT116 cells harboring wild-type p53 assessed as increase in early apoptosis at 2 times IC50 after 48 hrs by YoPro/propidium iodide/Hoechst staining based assay
Format: functional, cell-based
Settings: not given
For COc1cc(O)c(C(=O)/C=C/c2ccccc2)c(OC)c1 [FLAVOKAWAIN B], the Activity was “Active”.

System: not listed separately
Test: Selectivity index, ratio of IC50 for human fibroblasts to IC50 for human NCI-H727 cells
Settings: not given
With COc1cc(O)c(C(=O)/C=C/c2ccccc2)c(OC)c1 [FLAVOKAWAIN B] the “Ratio IC50” value was 2.3.

System: not listed separately
Test: Selectivity index, ratio of IC50 for human fibroblasts to IC50 for human PC3 cells
Settings: not given
In the case of COc1cc(O)c(C(=O)/C=C/c2ccccc2)c(OC)c1 [FLAVOKAWAIN B], the “Ratio IC50” value is reported as 2.9.

System: Huh-7
Test: Cell cycle arrest in human HuH7 cells assessed as accumulation at S phase at 10 uM measured after 48 hrs by Hoechst/BrdU staining based fluorescence assay (reference value: 44%)
Format: functional
Settings: not given
COc1cc(O)c(C(=O)/C=C/c2ccccc2)c(OC)c1 [FLAVOKAWAIN B] gave an Activity of 55%.

System: HCT-116
Test: Cell cycle arrest in human HCT116 cells harboring wild-type p53 assessed as mitotic index at 10 uM measured after 48 hrs by Hoechst staining based fluorescence assay (reference value: 2.3)
Format: functional
Settings: not given
With COc1cc(O)c(C(=O)/C=C/c2ccccc2)c(OC)c1 [FLAVOKAWAIN B] the Activity_index was 1.1.

System: Caco-2
Test: Cell cycle arrest in human Caco2 cells assessed as accumulation at S phase at 10 uM measured after 48 hrs by Hoechst/BrdU staining based fluorescence assay (reference value: […])
Format: functional
Settings: not given
With COc1cc(O)c(C(=O)/C=C/c2ccccc2)c(OC)c1 [FLAVOKAWAIN B] the Activity was 42%.

System: PC-3
Test: Cytotoxicity against human PC3 cells assessed as cell survival at 50 uM after 48 hrs by Hoechst 33342 staining based assay relative to control
Format: functional
Settings: PC-3, 48 h, read-out: Survival
Compound COc1cc(O)c(C(=O)/C=C/c2ccccc2)c(OC)c1 [FLAVOKAWAIN B] has a viability at 50 µM of 27%.

System: Caco-2
Test: Cell cycle arrest in human Caco2 cells assessed as mitotic index at 10 uM measured after 48 hrs by Hoechst staining based fluorescence assay (reference value: 3.6)
Format: functional
Settings: not given
Work on COc1cc(O)c(C(=O)/C=C/c2ccccc2)c(OC)c1 [FLAVOKAWAIN B] yielded an Activity_index of 9.7.

System: MDA-MB-231
Test: Cell cycle arrest in human MDA-MB-231 cells harboring p53 mutant assessed as mitotic index at 25 uM measured after 48 hrs by Hoechst staining based fluorescence assay (reference value: 2.1)
Format: functional
Settings: not given
COc1cc(O)c(C(=O)/C=C/c2ccccc2)c(OC)c1 [FLAVOKAWAIN B] gave an Activity_index of 6.8.

System: NCI-H727
Test: Cytotoxicity against human NCI-H727 cells assessed as cell viability after 48 hrs by Hoechst 33342 staining based assay
Format: functional
Settings: NCI-H727, 48 h
COc1cc(O)c(C(=O)/C=C/c2ccccc2)c(OC)c1 [FLAVOKAWAIN B] gave an IC50 of 11.3 µM.

System: Huh-7
Test: Cell cycle arrest in human HuH7 cells assessed as accumulation at S phase at 25 uM measured after 48 hrs by Hoechst/BrdU staining based fluorescence assay (reference value: 44%)
Format: functional
Settings: not given
COc1cc(O)c(C(=O)/C=C/c2ccccc2)c(OC)c1 [FLAVOKAWAIN B] showed an Activity of 30%.

System: MCF7
Test: Induction of apoptosis in human MCF7 cells harboring wild-type p53 assessed as upregulation of cyclinB1 measured after 18 hrs by Hoechst staining based assay
Format: functional, cell-based
Settings: not given
With COc1cc(O)c(C(=O)/C=C/c2ccccc2)c(OC)c1 [FLAVOKAWAIN B] the Activity was “Active”.

System: MCF7
Test: Induction of apoptosis in human MCF7 cells harboring wild-type p53 assessed as upregulation of p21 measured after 48 hrs by Hoechst staining based fluorescence assay
Format: functional, cell-based
Settings: not given
In the case of COc1cc(O)c(C(=O)/C=C/c2ccccc2)c(OC)c1 [FLAVOKAWAIN B], the Activity is reported as “Active”.

System: PC-3
Test: Induction of apoptosis in human PC3 cells harboring p53 mutant assessed as increase in cleaved caspase3 at 2 times IC50 after 48 hrs by Hoechst staining based assay
Format: functional, cell-based
Settings: not given
With COc1cc(O)c(C(=O)/C=C/c2ccccc2)c(OC)c1 [FLAVOKAWAIN B] the Activity was “Active”.

System: NCI-H727
Test: Cell cycle arrest in human NCI-H727 cells harboring p53 mutant assessed as mitotic index at 10 uM measured after 48 hrs by Hoechst staining based fluorescence assay (reference value: 1.1)
Format: functional
Settings: not given
In the case of COc1cc(O)c(C(=O)/C=C/c2ccccc2)c(OC)c1 [FLAVOKAWAIN B], the Activity_index is reported as 0.8.
